Experimental data as given in patent publication US11778995B2, “Genetically modified non-human animals and methods of use thereof” (Regeneron Pharmaceuticals, Inc., priority 2012, dated 2023).

Test system: INA-6 cells
Assay: μCT analysis of murine femurs after treatment of INA-6-engrafted mice with anti-myeloma drugs
Assay type: in vivo, mouse
Conditions: Rag2−/−Il2rgnullIl6h/hhSIRPa+ mice engrafted with 5×10^5 intrafemorally injected INA-6 cells, treated biweekly, femurs analyzed after four weeks, compared to untreated mice
Text: FIG. 7 is a graph depicting the results of μCT analysis of murine femurs after treatment with anti-myeloma drugs. Rag2^−/−Il2rg^nullIl6^h/hhSIRPa+ were engrafted with 5×10^5 intrafemorally injected INA-6 cells and treated biweekly with Velcade® or Zometa®, respectively. After four weeks, mice were sacrificed and femurs were fixed in 70% ethanol for μCT analysis. Trabecular bone and tissue volumes were quantified to calculate the ratio between bone to tissue volume.
Transplantation of cells. For intrafemoral transplantation of INA6 cells, Rag2^−/−Il2rg^null Il6^h/hhSIRPa^+ mice were irradiated twice with 200 rad from an X-ray source.
Indicated amounts of cells were then transplanted into the femur of recipient mice. Briefly, mice were anaesthetized using Ketamine/Xylazine and a hole was drilled into the patellar surface of the femur using a 26 gauge needle. The cells were then slowly injected in a volume of 20 μl using a 27 gauge needle. […]
μCT. Femur morphometry was quantified using cone-beam microfocus x-ray computed tomography (μCT40; ScancoMedicalAG). […]
Therefore, it was next examined whether transplantation of the tumor cell line in its natural microenvironment is able to reproduce the pathology typically associated with human MM. […] Specifically, the loss of trabecular bone mass was observed by histology, which was quantified by μCT. […]

O=P(O)(O)C(O)(Cn1ccnc1)P(=O)(O)O [Zometa]
bone resorption as quantified by μCT (ratio between bone to tissue volume): able to reduce bone resorption
